Data reported in patent US20240398805A1, “QUINAZOLINE DERIVED COMPOUNDS AS EGFR INHIBITORS AND THEIR USES THEREOF” (ACCUTAR BIOTECHNOLOGY INC., priority 2021, published 2024).

Experiments:
Assay type in all cases: cell-based
[1] = system: HCC827-ASV cells (human EGFR exon 20 insertion mutant A769_D770insASV); experiment: Cell growth inhibition (CellTiter-Glo, 3 days) in HCC827-ASV; details: 72 h, 3 days after administration
In short: (§1)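 Growth inhibition used a CellTiter-Glo luminescence read-out after 3 days of compound exposure at various concentrations. Cells were plated the day before at 5000/well in RPMI plus 10% FBS. The lines are HCC827 transduced by lentivirus with codon-optimized EGFR ASV or ERBB2 YVMA exon 20 insertions.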

[2] = system: HCC827-YVMA cells (human ERBB2 exon20 insertion mutant A775_G776ins YVMA); experiment: Cell growth inhibition (CellTiter-Glo, 3 days) in HCC827-YVMA; details: 72 h, 3 days after administration
In short: as §1

[3] = system: A431 cells; experiment: Cell growth inhibition (CellTiter-Glo, 3 days) in A431; details: Homo sapiens, A-431, 72 h, 3 days after administration
In short: (§2)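 Growth inhibition was scored by CellTiter-Glo luminescence after 3-day compound exposure at various concentrations. Cells were plated at 5000/well the day before treatment: A431 in DMEM and HCC827 in RPMI, each with 10% FBS.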

[4] = system: HCC827 cells; experiment: Cell growth inhibition (CellTiter-Glo, 3 days) in HCC827; details: Homo sapiens, 72 h, 3 days after administration
In short: as §2

[5] = system: HCC827-SVD cells (human EGFR exon 20 insertion mutant D770_N771 insSVD); experiment: Cell growth inhibition (CellTiter-Glo, 3 days) in HCC827-SVD; details: 72 h, 3 days after administration
In short: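 HCC827 cells carrying lentiviral codon-optimized EGFR D770_N771 insSVD, with endogenous EGFR knocked out by CRISPR (single clone), seeded at 5000 cells/well in RPMI with 10% FBS. Viability read by CellTiter-Glo luminescence.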

| GI50 [1] [nM] | GI50 [2] [nM] | GI50 [3] [nM] | GI50 [4] [nM] | GI50 [5] [nM] | Compound |
| --- | --- | --- | --- | --- | --- |
| < 30 | < 30 | ≥ 1000 | 100 to 300 | < 30 | C=CC(=O)N1CCC(Nc2cc3c(Nc4ccc(Oc5ccnc(N6CCCOCC6)c5)cc4F)ncnc3cc2OC)CC1 [Example 106, 1-(4-((4-((4-((2-(1,4-oxazepan-4-yl)pyridin-4-yl)oxy)-2-fluorophenyl)amino)-7-methoxyquinazolin-6-yl)amino)piperidin-1-yl)prop-2-en-1-one] |
| 300 to 600 | 300 to 600 | 300 to 600 | 100 to 300 | 600 to 1000 | C=CC(=O)N1CCC(Nc2cc3c(Nc4ccc(OCc5ccc(N6CCOCC6)cn5)cc4F)ncnc3cc2OC)CC1 [Example 107, 1-(4-((4-((2-fluoro-4-((5-morpholinopyridin-2-yl)methoxy)phenyl)amino)-7-methoxyquinazolin-6-yl)amino)piperidin-1-yl)prop-2-en-1-one] |
| 100 to 300 | 100 to 300 | ≥ 1000 | 300 to 600 | 300 to 600 | C=CC(=O)N1CCC(Nc2cc3c(Nc4ccc(Oc5cc(N6C[C@@H](C)O[C@@H](C)C6)ncc5Cl)cc4F)ncnc3cc2OC)CC1 [Example 108, 1-(4-((4-((4-((5-chloro-2-((2R,6S)-2,6-dimethylmorpholino)pyridin-4-yl)oxy)-2-fluorophenyl)amino)-7-methoxyquinazolin-6-yl)amino)piperidin-1-yl)prop-2-en-1-one] |
| ≥ 1000 | ≥ 1000 | ≥ 1000 | < 30 | ≥ 1000 | C=CC(=O)N1CCC(Nc2cc3c(Nc4ccc(Oc5ccnn5-c5cnc(OC)c(F)c5)cc4F)ncnc3cc2OC)CC1 [Example 109, 1-(4-((4-((2-fluoro-4-((1-(5-fluoro-6-methoxypyridin-3-yl)-1H-pyrazol-5-yl)oxy)phenyl)amino)-7-methoxyquinazolin-6-yl)amino)piperidin-1-yl)prop-2-en-1-one] |
| ≥ 1000 | ≥ 1000 | 100 to 300 | < 30 | ≥ 1000 | C=CC(=O)N1CCC(Nc2cc3c(Nc4ccc(Oc5ncc(N6C[C@@H](C)O[C@@H](C)C6)cn5)cc4F)ncnc3cc2OC)CC1 [Example 110, 1-(4-((4-((4-((5-((2R,6S)-2,6-dimethylmorpholino)pyrimidin-2-yl)oxy)-2-fluorophenyl)amino)-7-methoxyquinazolin-6-yl)amino)piperidin-1-yl)prop-2-en-1-one] |
| 300 to 600 | 300 to 600 | 600 to 1000 | 30 to 60 | 300 to 600 | C=CC(=O)N1CCC(Nc2cc3c(Nc4ccc(Oc5ccc(N6C[C@@H](C)O[C@@H](C)C6)cn5)cc4F)ncnc3cc2OC)CC1 [Example 111, 1-(4-((4-((4-((5-((2R,6S)-2,6-dimethylmorpholino)pyridin-2-yl)oxy)-2-fluorophenyl)amino)-7-methoxyquinazolin-6-yl)amino)piperidin-1-yl)prop-2-en-1-one] |
| 300 to 600 | 600 to 1000 | ≥ 1000 | ≥ 1000 | 100 to 300 | C=CC(=O)N1CCC(Nc2cc3c(Nc4ccc(Oc5ccnc(N6CCS(=O)(=O)CC6)c5)cc4F)ncnc3cc2OC)CC1 [Example 112, 1-(4-((4-((4-((2-(1,1-dioxidothiomorpholino)pyridin-4-yl)oxy)-2-fluorophenyl)amino)-7-methoxyquinazolin-6-yl)amino)piperidin-1-yl)prop-2-en-1-one] |
| < 30 | < 30 | 600 to 1000 | 30 to 60 | < 30 | C=CC(=O)N1CCC(Nc2cc3c(Nc4ccc(Oc5ccnc(N6CCN(C)CC6)c5)cc4F)ncnc3cc2OC)CC1 [Example 113, 1-(4-((4-((2-fluoro-4-((2-(4-methylpiperazin-1-yl)pyridin-4-yl)oxy)phenyl)amino)-7-methoxyquinazolin-6-yl)amino)piperidin-1-yl)prop-2-en-1-one] |
| 60 to 100 | 100 to 300 | ≥ 1000 | 300 to 600 | 100 to 300 | C=CC(=O)N1CCC(Nc2cc3c(Nc4ccc(Oc5ccnc(N6CC[C@@H](OC)C6)c5)cc4F)ncnc3cc2OC)CC1 [Example 114, (R)-1-(4-((4-((2-fluoro-4-((2-(3-methoxypyrrolidin-1-yl)pyridin-4-yl)oxy)phenyl)amino)-7-methoxyquinazolin-6-yl)amino)piperidin-1-yl)prop-2-en-1-one] |
| 100 to 300 | 100 to 300 | 300 to 600 | 300 to 600 | 60 to 100 | C=CC(=O)N1CCC(Nc2cc3c(Nc4ccc(Oc5ccnc(N6CC[C@H](OC)C6)c5)cc4F)ncnc3cc2OC)CC1 [Example 115, (S)-1-(4-((4-((2-fluoro-4-((2-(3-methoxypyrrolidin-1-yl)pyridin-4-yl)oxy)phenyl)amino)-7-methoxyquinazolin-6-yl)amino)piperidin-1-yl)prop-2-en-1-one] |
| 100 to 300 | 60 to 100 | 600 to 1000 | 300 to 600 | 100 to 300 | C=CC(=O)N1CCC(Nc2cc3c(Nc4ccc(Oc5ccnc(N(C)CCOC)c5)cc4F)ncnc3cc2OC)CC1 [Example 116, 1-(4-((4-((2-fluoro-4-((2-((2-methoxyethyl)(methyl)amino)pyridin-4-yl)oxy)phenyl)amino)-7-methoxyquinazolin-6-yl)amino)piperidin-1-yl)prop-2-en-1-one] |
| 100 to 300 | 60 to 100 | ≥ 1000 | 300 to 600 | 100 to 300 | C=CC(=O)N1CCC(Nc2cc3c(Nc4ccc(Oc5ccnc(N(CCOC)CCOC)c5)cc4F)ncnc3cc2OC)CC1 [Example 117, 1-(4-((4-((4-((2-(bis(2-methoxyethyl)amino)pyridin-4-yl)oxy)-2-fluorophenyl)amino)-7-methoxyquinazolin-6-yl)amino)piperidin-1-yl)prop-2-en-1-one] |
| 30 to 60 | 30 to 60 | ≥ 1000 | 300 to 600 | 30 to 60 | C=CC(=O)N1CCC(Nc2cc3c(Nc4ccc(Oc5ccnc(N6CC7(COC7)C6)c5)cc4F)ncnc3cc2OC)CC1 [Example 118, 1-(4-((4-((4-((2-(2-oxa-6-azaspiro[3.3]heptan-6-yl)pyridin-4-yl)oxy)-2-fluorophenyl)amino)-7-methoxyquinazolin-6-yl)amino)piperidin-1-yl)prop-2-en-1-one] |
| 60 to 100 | 100 to 300 | 100 to 300 | 300 to 600 | 100 to 300 | C=CC(=O)N1CCC(Nc2cc3c(Nc4ccc(Oc5ccnc(N6CC(OC)C6)c5)cc4F)ncnc3cc2OC)CC1 [Example 119, 1-(4-((4-((2-fluoro-4-((2-(3-methoxyazetidin-1-yl)pyridin-4-yl)oxy)phenyl)amino)-7-methoxyquinazolin-6-yl)amino)piperidin-1-yl)prop-2-en-1-one] |
| 100 to 300 | 600 to 1000 | ≥ 1000 | ≥ 1000 | 100 to 300 | C=CC(=O)N1CCC(Nc2cc3c(Nc4ccc(Oc5ccnc(N6CCN(C(C)=O)CC6)c5)cc4F)ncnc3cc2OC)CC1 [Example 120, 1-(4-((4-((4-((2-(4-acetylpiperazin-1-yl)pyridin-4-yl)oxy)-2-fluorophenyl)amino)-7-methoxyquinazolin-6-yl)amino)piperidin-1-yl)prop-2-en-1-one] |
